Reference: PubChem BioAssay AID1632 (University of Pittsburgh Molecular Library Screening Center, 2009)
Results filed as inconclusive are left out.

target: hexokinase 1 [Trypanosoma brucei]; test: TbHK1 enzyme inhibition, concentration series – biochemical, IC50, dose response (AID 1632); conditions: recombinant TbHK1 enzyme assay, absorbance read-out

SMILES	IC50 [µM]
O=[N+]([O-])c1cc(/C=N\Nc2nccs2)ccc1O	2.69

same assay, conditions: recombinant TbHK1 enzyme assay, absorbance read-out; inhibition; at 100 µM; stronger effect = higher value

SMILES	inhibition [%]
O=[N+]([O-])c1cc(/C=N\Nc2nccs2)ccc1O	33.3
O=C(Cn1sc2ccccc2c1=O)NC12CC3CC(CC(C3)C1)C2	74.6
COc1ccc(C(=O)Nc2cc(Cl)ccc2C(=O)O)cc1	75.7
Cc1ccc(CNC(=O)CCS(=O)(=O)c2ccc(Br)cc2)cc1	82.3
COc1cc(/C=C(\C#N)c2nc3c(s2)CCCC3)ccc1O	42.4
CCOC(=O)Cc1csc(-n2sc3ccccc3c2=O)n1	46.9
COC(=O)c1ccccc1NC(=O)CCS(=O)(=O)c1ccc(Br)cc1	71.7
O=c1c2ccccc2sn1-c1ccccc1	22.3
C/C(=C/CCC(C)[C@H]1CC[C@@]2(C)C3=C(CC[C@]12C)[C@@]1(C)CCC(=O)C(C)(C)[C@@H]1CC3)C(=O)O (some centres undefined)	55.3
Cc1ccccc1-n1sc2cc(F)ccc2c1=O	87.8
CCCCc1ccc(/C=C2/C(=O)ON=C2c2ccccc2)s1	32.1
CCCCCCCCCCCNC(=O)c1ccoc1C	73.4
O=C(O)CCCCC1CCSS1 (centres undefined)	96.4
